Results on 5 compounds are retold here after patent publication US20210388007A1, “COMPOUND AND PREPARATION METHOD AND APPLICATION THEREOF” (WUHAN UNIVERSITY, priority 2020, published 2021).

One data set in a line: storage stability (sealed storage, degradation rate). It is filed as physicochemical. The settings on record: sealed storage at 5° C. for two weeks. The procedure: (§1) The storage stability, light stability and solubility in common solvents of the tri(di)fluoroethanolation reagents 1a, 2a, A2, A3 and A4 prepared in Embodiment 1, Embodiment 23, Embodiment 30, Embodiment 31 and Embodiment 32 of the present disclosure were tested, and the results are shown in Table 1 below.
Consider `C[Si](c1ccccc1)(c1ccccc1)C(O)C(F)(F)F` (racemic) [Embodiment A4], for which the “storage stability, sealed storage at 5° C. for two weeks (degradation rate, mol %)” value is listed as under 1% mol %.

Turning to `C[Si](C)(c1ccccc1)C(O)C(F)(F)F` (racemic) [a1], the “storage stability, sealed storage at 5° C. for two weeks (degradation rate, mol %)” value is given as under 1% mol %.

On to `C[Si](C)(c1ccccc1)C(O)C(F)F` (racemic) [a2], for which the “storage stability, sealed storage at 5° C. for two weeks (degradation rate, mol %)” value was under 1% mol %.

Regarding `OC(C(F)(F)F)[Si](c1ccccc1)(c1ccccc1)c1ccccc1` (stereo not shown) [Embodiment A3], the “storage stability, sealed storage at 5° C. for two weeks (degradation rate, mol %)” value is listed as under 1% mol %.

Staying with this data set, now noted: sealed storage at 5° C. for two weeks; listed as A2.
For `C[Si](C)(c1ccccc1)C(O)C(F)F` (racemic) [a2], the “storage stability, sealed storage at 5° C. for two weeks (degradation rate, mol %)” value was determined as 2% mol %.

Still in this data set, the particulars now being: sealed storage at 30° C. for two weeks.
For the compound `C[Si](c1ccccc1)(c1ccccc1)C(O)C(F)(F)F` (racemic) [Embodiment A4], the “storage stability, sealed storage at 30° C. for two weeks (degradation rate, mol %)” value stood at 3.2% mol %.

Regarding `C[Si](C)(c1ccccc1)C(O)C(F)(F)F` (racemic) [a1], the “storage stability, sealed storage at 30° C. for two weeks (degradation rate, mol %)” value is listed as 5% mol %.

Regarding `C[Si](C)(c1ccccc1)C(O)C(F)F` (racemic) [a2], the “storage stability, sealed storage at 30° C. for two weeks (degradation rate, mol %)” value was determined as 4% mol %.

`OC(C(F)(F)F)[Si](c1ccccc1)(c1ccccc1)c1ccccc1` (stereo not shown) [Embodiment A3]: the “storage stability, sealed storage at 30° C. for two weeks (degradation rate, mol %)” value is under 1% mol %.

Staying with this data set, now noted: sealed storage at 30° C. for two weeks; listed as A2.
As to `C[Si](C)(c1ccccc1)C(O)C(F)F` (racemic) [a2], the “storage stability, sealed storage at 30° C. for two weeks (degradation rate, mol %)” value turned out to be 14% mol %.

Test in the next data set: not given
Conditions: not given
As for `CC1(CC(O)C(F)(F)F)C(=O)N(c2ccccc2)c2ccccc21` (stereo not shown) [Embodiment 21, 3-methyl-1-phenyl-3-(3,3,3-trifluoro-2-hydroxypropyl)indol-2-one], the melting point – broadly, the temperature, or range, at which the solid turns liquid – was 116 to 118 °C.

A further data set can be described thus: solubility in common solvents of the tri(di)fluoroethanolation reagents. It is filed as physicochemical. The settings on record: solvent acetonitrile. The procedure:
as §1
For the compound `C[Si](c1ccccc1)(c1ccccc1)C(O)C(F)(F)F` (racemic) [Embodiment A4], the solubility acetonitrile entry was “dissolved”.

Take `C[Si](C)(c1ccccc1)C(O)C(F)(F)F` (racemic) [a1]: the solubility acetonitrile result is “dissolved”.

Take `C[Si](C)(c1ccccc1)C(O)C(F)F` (racemic) [a2]: the solubility acetonitrile result is given as “dissolved”.

On to `OC(C(F)(F)F)[Si](c1ccccc1)(c1ccccc1)c1ccccc1` (stereo not shown) [Embodiment A3], for which the solubility acetonitrile entry is listed as “dissolved”.

Still in this data set, the particulars now being: solvent dichloromethane (DCM).
With `C[Si](c1ccccc1)(c1ccccc1)C(O)C(F)(F)F` (racemic) [Embodiment A4], the “solubility dichloromethane (DCM)” value was “dissolved”.

For `C[Si](C)(c1ccccc1)C(O)C(F)(F)F` (racemic) [a1], the “solubility dichloromethane (DCM)” value is on record as “dissolved”.

With `C[Si](C)(c1ccccc1)C(O)C(F)F` (racemic) [a2], the “solubility dichloromethane (DCM)” value is reported as “dissolved”.

Regarding `OC(C(F)(F)F)[Si](c1ccccc1)(c1ccccc1)c1ccccc1` (stereo not shown) [Embodiment A3], the “solubility dichloromethane (DCM)” value is recorded as “dissolved”.

Staying with this data set, now noted: solvent ethyl acetate (EA).
Turning to `C[Si](c1ccccc1)(c1ccccc1)C(O)C(F)(F)F` (racemic) [Embodiment A4], the “solubility ethyl acetate (EA)” value is “dissolved”.

`C[Si](C)(c1ccccc1)C(O)C(F)(F)F` (racemic) [a1]: the “solubility ethyl acetate (EA)” value was “dissolved”.

For `C[Si](C)(c1ccccc1)C(O)C(F)F` (racemic) [a2], the “solubility ethyl acetate (EA)” value is recorded as “dissolved”.

With `OC(C(F)(F)F)[Si](c1ccccc1)(c1ccccc1)c1ccccc1` (stereo not shown) [Embodiment A3], the “solubility ethyl acetate (EA)” value is “dissolved”.

Staying with this data set, now noted: solvent n-hexane.
For `C[Si](c1ccccc1)(c1ccccc1)C(O)C(F)(F)F` (racemic) [Embodiment A4], the solubility n-hexane entry is listed as “well”.

For `C[Si](C)(c1ccccc1)C(O)C(F)(F)F` (racemic) [a1], the solubility n-hexane result is “dissolved”.

Regarding `C[Si](C)(c1ccccc1)C(O)C(F)F` (racemic) [a2], the solubility n-hexane entry is “dissolved”.

In the case of `OC(C(F)(F)F)[Si](c1ccccc1)(c1ccccc1)c1ccccc1` (stereo not shown) [Embodiment A3], the solubility n-hexane entry was “slightly”.

A short description of another data set: light stability (continuous white light irradiation, degradation rate).
Conditions: not given
It is filed as physicochemical. As to the method:
as §1
Consider `C[Si](c1ccccc1)(c1ccccc1)C(O)C(F)(F)F` (racemic) [Embodiment A4], for which the “light stability, continuous white light irradiation at 25° C. for 2 days (degradation rate, mol %)” value (shortened to “light stability … (degradation rate, mol %)”) is on record as under 1% mol %.

Consider `C[Si](C)(c1ccccc1)C(O)C(F)(F)F` (racemic) [a1], for which the “light stability … (degradation rate, mol %)” value is listed as under 1% mol %.

Consider `C[Si](C)(c1ccccc1)C(O)C(F)F` (racemic) [a2], for which the “light stability … (degradation rate, mol %)” value is on record as under 1% mol %.

Regarding `OC(C(F)(F)F)[Si](c1ccccc1)(c1ccccc1)c1ccccc1` (stereo not shown) [Embodiment A3], the “light stability … (degradation rate, mol %)” value is on record as under 1% mol %.
